Laboratory results as given in patent US20220193016A1, “COMPOSITIONS, METHODS AND USES FOR TARGETING C-TERMINAL BINDING PROTEIN (CtBP) IN [sequence] BRAIN INJURY” (THE REGENTS OF THE UNIVERSITY OF COLORADO, A BODY CORPORATE, priority 2019, published 2022).

Legend:
[1] = system: repetitive mild TBI (two 0.5 J impacts 24 h apart); experiment: Repetitive mild TBI in mice (NSS, brain mRNA); type: in vivo, mouse
Method: In another exemplary experiment, mice (n=4 per group) were subjected to a single mild TBI of 0.5 J dose at 0 h (sTBI) or two doses of 0.5 J mild TBI (rTBI) that were 24 h apart, at 0 h and 24 h. Animals with rTBI were separated into three. groups untreated, intraperitoneally injected with MTOB (860 mg/kg) or NSC95397 (1.5 mg/kg) at 1 h and 18 h. Animals were tested right before the two MTOB injection (0 h and 18 h) and then daily for neurobehavioral preformance. At the end point (72 h), the brain and circulating leukocytes were collected for molecular and immunostaining analyses.
FIGS. 9A-9D. Administration of MTOB and NSC95397 after a single mild TBI effectively subdues neuroinflammation and improves neurological outcome elicited by a second mild TBI. Mice (n=4 per group) were subjected to a single mild TBI of 0.5 J dose at 0 h (sTBI) or two doses of 0.5 J mild TBI, 24 h apart, at 0 h and 24 h (rTBI). The three rTBI groups were either untreated, treated with MTOB (860 mg/kg) or NSC95397 (1.5 mg/kg) at […] and 18 h. (9A) Neurobehavioral severity scale (NSS) analysis was performed at the indicated time points after the first TBI; the scores were shown as mean+SD. (9B) Bar graphs represent mean±SD of fold changes in mRNA levels in the brain. (9A) Experimental timeline. Mice received a single head impact of 0.5 J energy (1×TBI), or two 0.5 J impacts (2×TBI) spaced 24 h apart. […]

[2] = system: DNFB-induced contact hypersensitivity (CHS); experiment: DNFB mouse model of contact hypersensitivity; type: in vivo; conditions: peptides topically on the ear day 6 through day 9
Description: In another exemplary method, FIG. 14A-14B illustrate the effectiveness of additional CtBP inhibiting peptides in reducing skin inflammation caused by sensitization and elicitation with the hapten 2,4-dinitrofluorobenzene (DNFB). Peptides MH-3, MH-4, MH-6 and MH-7 were derived from MH-2, all containing a polyarginine sequence to promote membrane transduction, with variations at the linker or flanking sequence of the PIDLS motif. […] The thickness of the epidermis of the ear is indicated by the red square bracket. It is noted that the DNFB-induced CHS in mice is an established model for human allergic contact dermatitis, both of which are T cell-mediated delayed hypersensitivity responses. Mice (n=3) were sensitized on day 1 with […] of 0.5% DNFB on the abdomen surface and challenged on day 6 with […] of 0.5% DNFB on both sides of the ears to trigger T memory cell-mediated hypersensitivity reaction. Peptides ([…]) were topically administered on both sides of the ear 1 h after the DNFB application on day 6 through day 9. Ear swelling and reddening were examined daily till the end point (day 9).

[3] = system: imiquimod-induced psoriasis-like skin inflammation; experiment: Imiquimod animal model of psoriasis-like skin inflammation; type: in vivo, mice; conditions: peptides topically daily from day 3 of imiquimod course; day 7
[4] = system: LPS-activated primary astrocytes; experiment: LPS-induced expression of CtBP target genes in primary astrocytes (mRNA); type: cell-based; conditions: primary astrocytes from neonatal mouse brain, data not shown
[5] = system: isolated mouse hippocampus; experiment: LPS-induced expression of CtBP target genes in isolated mouse hippocampus; conditions: 20 mM Pep1-E1As 2 h, then 200 ng/mL LPS 2 h; mRNA, FIG. 6C
Method: In another exemplary method, a CtBP inhibitor was analyzed for effects on CtBP target gene expression using methods disclosed herein. […] FIG. 6A represents primary microglia that were incubated with 20 μM Pep1-E1As for 2 hours followed by 2 hours of treatment with 200 ng/mL LPS. Bar graphs represent mean±SD of fold changes in mRNA levels. […] FIG. 6C represents isolated mouse hippocampus that were incubated with […] Pep1-E1As for 2 hours followed by 2 hours treatment with 200 ng/mL LPS. Bar graphs represent mean±SD of fold changes in mRNA levels.

[6] = system: LPS-activated primary microglia; experiment: LPS-induced expression of CtBP target genes in primary microglia (mRNA); type: cell-based, mouse; conditions: for LPS-induced expression of the CtBP-controlled inflammatory genes: primary microglia from neonatal mouse brain, 20 μM peptide 2 h, then 200 ng/mL LPS 2 h, mRNA
[7] = system: BV2 cells; experiment: Expression of CtBP target genes in LPS-activated BV2 microglia cell line (RT-qPCR); type: cell-based, mouse; conditions: siRNA 24 h, then LPS 200 ng/ml 6 h
Method: In one exemplary method, BV2 cells were treated with CtBP-specific siRNAs 24 hours prior to a 6-hour treatment with LPS. In this example, siCtBP1 (SEQ. NO.1) and siCtBP2 (SEQ. NO.2) were used. Relative mean mRNA levels (±SD) were determined by RT-qPCR, performed in triplicate and in two independent experiments.
(§1) Murine RAW264.7 (A) and BV2 (B) cells were transfected with siRNAs specific for CtBP1 and CtBP2 or scrambled control siRNAs for a period of 24 h, followed by LPS stimulation (200 ng/ml) for 6 h. Total RNA was extracted and analyzed by the RT-qPCR. Relative mRNA expression was normalized to that of ACTB and depicted as fold changes vs. scrambled siRNA transfected and non-stimulated control (Untreated). Data are presented as mean±SD. n=3; **p<0.01, ***p<0.001. FIG. 2C illustrates LPS-induced binding of CtBP1, CtBP2 and p300 to the IL1β, IL6, TNFα and S100A8 gene promoters. Chromatin fractions from control and LPS-treated BV2 cells were precipitated with antibodies specific to CtBP1, CtBP2 and p300. Bars represent fold changes of relative ChIP signals normalized to the respective controls.
(§2) In this exemplary study, cells were pretreated with 0.5 or 2.5 mM MTOB for 2 h or 18 h, then with 100 ng/mL LPS for an additional 2 h before being harvested for analysis, using RT-qPCR. Bar graphs represent mean±SD of fold changes in mRNA levels. […]

[8] = system: RAW264.7 cells; experiment: Expression of CtBP target genes in LPS-activated RAW264.7 macrophage cell line (RT-qPCR); type: cell-based, mouse; conditions: siRNA 24 h, then LPS 200 ng/ml 6 h
Method: as §1, §2
In another exemplary method as illustrated in FIG. 11 relative CtBP1, CtBP2, IL6, S100A8, NRLP3, E-cadherin and Bax mRNA levels in RAW264.7 macrophages stimulated with 100 ng/ml of LPS for 6 h before post-treatment with MTOB for 2 h and at dosages of 0.5 mM and 2.5 mM MTOB sodium salt were analyzed. […]

O=C1C(SCCO)=C(SCCO)C(=O)c2ccccc21 [NSC95397, 2,3-Bis[(2-hydroxyethyl)thio]-1,4-naphthoquinone]
inflammatory gene induction (brain mRNA) after repetitive mild TBI ([1]; i.p. MTOB 860 mg/kg or NSC95397 1.5 mg/kg at 1 h and 18 h, 72 h after first injury): significantly reduced
neurobehavioral defects (NSS) after repetitive mild TBI ([1]; i.p. MTOB 860 mg/kg or NSC95397 1.5 mg/kg at 1 h and 18 h after first injury): significantly reduced

MH-2: SEQ ID NO. 19 RRRRRRRRGGPIDLSKKA (18 aa) (Synthetic Sequence - MH-2)
epidermal hyperproliferation of the ear [2]: reducing epidermal hyperproliferation and immunocyte infiltration
immunocyte infiltration (CD45 immunohistochemistry) [2]: reducing epidermal hyperproliferation and immunocyte infiltration
imiquimod-induced epidermal proliferation (H&E, epidermis thickness) [3]: as effective in reducing imiquimod-induced epidermal proliferation as the prototype Pep1-E1A

Pep1-E1AWT: SEQ ID NO. 5 GSHMKETWWETWWTEWSQPKKKRKVLEEPGQPLDLSCKRPRDYKDDDDK; FLAG-tagged Pep1 fusion with wild-type E1A sequence
LPS-induced expression of the CtBP-controlled inflammatory genes [4]: inhibited LPS-induced expression
LPS-induced expression of the CtBP-controlled inflammatory genes ([4]; listed as Pep1-E1A): strongly suppressed
expression of CtBP target gene in LPS-activated isolated mouse hippocampus [5]: inhibition of expression of CtBP target gene
LPS-induced expression of the CtBP-controlled inflammatory genes [6]: inhibited LPS-induced expression
LPS-induced expression of the CtBP-controlled inflammatory genes ([6]; listed as Pep1-E1A): strongly suppressed
basal mRNA levels of CDH1 and BAX (genes repressed by CtBPs) ([6]; primary microglia, FIG. 6A right panel): increased the basal mRNA levels
imiquimod-induced epidermal proliferation (H&E, epidermis thickness) [3]: reducing imiquimod-induced epidermal proliferation

siRNAs specific for CtBP1 and CtBP2: simultaneous use of mouse siCtBP1 (SEQ. NO.1) and siCtBP2 (SEQ. NO.2) (chain 1 UCUUCCACAGUGUGACUGCGUUAUUUU; chain 2 GCCUUUGGAUUCAGCGUCAUAUUU; listed as RNA, chemistry not given here)
mRNA expression of proinflammatory genes after knockdown [7]: suppresses mRNA expression of proinflammatory genes
mRNA expression of proinflammatory genes after knockdown [8]: suppresses mRNA expression of proinflammatory genes
